Results from patent US9085786B2, “Process for the production of polyamines” (BASF SE, priority 2009, dated 2015).

T1: AOX (alcohol oxidase) (Komagataella phaffii, UniProt P04842)
T1 sequence (P04842 1-663): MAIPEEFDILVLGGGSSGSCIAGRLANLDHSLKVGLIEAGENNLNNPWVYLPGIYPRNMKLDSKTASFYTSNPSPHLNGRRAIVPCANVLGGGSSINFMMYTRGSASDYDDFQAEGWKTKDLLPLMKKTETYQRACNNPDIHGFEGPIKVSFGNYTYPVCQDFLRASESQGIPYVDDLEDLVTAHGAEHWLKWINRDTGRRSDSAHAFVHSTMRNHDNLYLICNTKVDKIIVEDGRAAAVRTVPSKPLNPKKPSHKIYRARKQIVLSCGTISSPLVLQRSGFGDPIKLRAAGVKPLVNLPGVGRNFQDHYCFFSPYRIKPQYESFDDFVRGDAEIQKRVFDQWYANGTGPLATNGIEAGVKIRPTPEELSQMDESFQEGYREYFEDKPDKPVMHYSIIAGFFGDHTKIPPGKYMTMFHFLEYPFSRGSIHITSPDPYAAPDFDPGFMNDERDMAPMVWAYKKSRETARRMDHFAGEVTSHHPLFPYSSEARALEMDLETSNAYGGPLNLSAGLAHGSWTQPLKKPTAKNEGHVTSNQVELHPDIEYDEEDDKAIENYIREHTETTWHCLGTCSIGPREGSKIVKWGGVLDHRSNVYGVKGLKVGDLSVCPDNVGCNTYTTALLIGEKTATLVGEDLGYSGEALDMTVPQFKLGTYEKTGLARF


Tests used:
AOX (alcohol oxidase) = target: T1, AOX (alcohol oxidase); type: biochemical; details: for Relative activity / Vmax: pH 7.0, 100 mM MOPS-buffer; for Relative activity: ethanol = 100; for Vmax: compound as substrate
Excerpt: In the AOX approach cofactor regeneration is not required. The reaction is further driven by the Catalase-catalyzed decomposition of hydrogen peroxide. […]
The enzyme was obtained from commercially available from Sigma Aldrich.
Reaction followed […] preference of one enantiomer over the other as substrate, as defined by the division of the specificity constants. The specificity constant is defined as kcat/Km.

[1] = tested on: HLADH (Horse Liver Alcohol Dehydrogenase); assay: Kinetic constants for HLADH, spectrophotometric assay of NADH formation at 340 nm; type: biochemical, Equus caballus; details: for Vmax / Relative activity / Km: pH 9.1, 100 mM CHES-buffer; for Vmax / Km: compound as substrate; for Relative activity: ethanol = 100; for E-value: pH 9.1, preference of one enantiomer over the other, ratio of specificity constants kcat/Km
Excerpt: In the HLADH approach cofactor regeneration is accomplished by the use of vinyl acetate. Vinyl acetate rapidly hydrolyzes at pH 9.1, decomposing into acetic acid and acetic aldehyde. The aldehyde can be reduced by HLADH into ethanol, thereby forming NAD^+ from NADH. Unreacted acetic aldehyde can be removed by bubbling N2 after deactivating the enzyme with EDTA or H2O2. For the alcohol dehydrogenase HLADH the reaction was spectrophotometrically followed by the formation of NADH at 340 nm. Different concentrations of the various amino alcohols were used to obtain the Michaelis-Menten kinetic constants.
This reaction was performed at pH 9.1. The enzyme was obtained from commercially available from Sigma Aldrich.
Reaction catalysed by HLADH was followed spectrophotometrically at 340 nm, by the formation of NADH.

[2] = substrate: CCO; assay: purified protein, by the assay type; details: other: AOX, pH 7.0, 100 mM MOPS-buffer, compound as substrate

Row | Molecule | Relative activity (AOX (alcohol oxidase)) [%] | Vmax [1] [µmol/min/mg] | Relative activity [1] [%] | Catalysis of the reaction and appearance of aldehyde (AOX (alcohol oxidase); ABTS replaced by pyrogallol or purpald, rates not reproducible) | Vmax (AOX (alcohol oxidase)) | Km [1] [mM] | E-value [1] | E-value (AOX (alcohol oxidase); pH 7.0, preference of one enantiomer over the other, ratio of specificity constants kcat/Km) | Km [2] [mM] | Vmax [2] [µmol/min/mg]
1 | CC(O)CN (racemic) [1-Amino-propan-2-ol (rac), 1-Amino-propan-2-ol] | 0 | 0 | 0 | – | – | – | – | – | – | –
2 | NCC(O)c1ccccc1 (stereo not drawn) [2-Amino-1-phenyl ethanol] | – | – | – | the enzyme was catalysing the reaction and the appearance of aldehyde | – | – | – | – | – | –
3 | NCCO [2-Amino-ethanol] | ~0 | <0.005 | ~0 | – | Very low | – | – | – | – | –
4 | NCCCO [3-Amino-propan-1-ol] | 0.18 | 0.17 | 11 | – | 0.021 µmol/min/mg | 13 | – | – | – | –
5 | CCO [Ethanol, reference compound] | 100 | 1.5 | 100 | – | – | 0.6 | – | – | – | –
6 | NC[C@H](O)c1ccccc1 [R-2-Amino-1-phenyl-ethanol] | – | <0.002 | ~0 | – | – | – | >100 | – | – | –
7 | C[C@@H](N)CO [R-2-Amino-propan-1-ol] | 0.88 | <0.0007 | ~0 | – | 0.10 µmol/min/mg | – | >300 | 3.6 | – | –
8 | NC[C@@H](O)c1ccccc1 [S-2-Amino-1-phenyl-ethanol] | – | 0.21 | 14 | – | – | 6.2 | – | – | – | –
9 | C[C@H](N)CO [S-2-Amino-propan-1-ol] | 3.2 | 0.21 | 14 | – | 0.37 µmol/min/mg | 6.3 | – | – | – | –
10 | AOX (alcohol oxidase) (Komagataella phaffii GS115) (protein) MAIPEEFDILVLGGGSSGSCIAGRLANLDHSLKVGLIEAGENNLNNPWVYLPGIYPRNMKLDSKTASFYTSNPSPHLNGRRAIVPCANVLGGGSSINFMMYTRGSASDYDDFQAEGWKTKDLLPLMKKTETYQRACNNPDIHGFEGPIKVSFGNYTYPVCQDFLRASESQGIPYVDDLEDLVTAHGAEHWLKWINRDTGRRSDSAHAFVHSTMRNHDNLYLICNTKVDKIIVEDGRAAAVRTVPSKPLNPKKPSHKIYRARKQIVLSCGTISSPLVLQRSGFGDPIKLRAAGVKPLVNLPGVGRNFQDHYCFFSPYRIKPQYESFDDFVRGDAEIQKRVFDQWYANGTGPLATNGIEAGVKIRPTPEELSQMDESFQEGYREYFEDKPDKPVMHYSIIAGFFGDHTKIPPGKYMTMFHFLEYPFSRGSIHITSPDPYAAPDFDPGFMNDERDMAPMVWAYKKSRETARRMDHFAGEVTSHHPLFPYSSEARALEMDLETSNAYGGPLNLSAGLAHGSWTQPLKKPTAKNEGHVTSNQVELHPDIEYDEEDDKAIENYIREHTETTWHCLGTCSIGPREGSKIVKWGGVLDHRSNVYGVKGLKVGDLSVCPDNVGCNTYTTALLIGEKTATLVGEDLGYSGEALDMTVPQFKLGTYEKTGLARF | – | – | – | – | – | – | – | – | 1.3 | 12
